pEC50: −log10 of the molar value.
Each molecule was assayed on MG13-hCCR5 cells, FAP-MG2p fluorogen binding, flow cytometry MCF (assay: interference with FAP-CCR5 fluorogen signal, dose response, counter-screen for beta2AR agonist project, cell-based, FAP-tagged human CCR5, Powderset5 (AID 651913)).

First: CN(CC(=O)N1CCN(c2ccc(F)cc2)CC1)S(=O)(=O)c1ccc(Br)cc1
Second: CN(CC(=O)N1CCN(c2ccc(F)cc2)CC1)S(=O)(=O)c1cc(Cl)ccc1Cl
The pEC50 of the first is 1.27 log units lower: 5.99 for the first, 7.26 for the second.

First: CN(CC(=O)N1CCN(c2ccccn2)CC1)S(=O)(=O)c1ccc(Cl)cc1
Second: O=C(C1CCCN1S(=O)(=O)c1ccc(Cl)cc1)N1CCN(c2ccccn2)CC1 (stereo not given)
The pEC50 of the first is 1.38 log units higher: 7.97 for the first, 6.59 for the second. The first is the more potent here.

With `CCC1CCCCN1S(=O)(=O)c1ccc(NC(C)=O)cc1` (stereo not given) the pEC50 was 6.34.
